Laboratory results reported in publication PMC10367051, “Comprehensive Mechanistic View of the Hydrolysis of Oxadiazole-Based Inhibitors by Histone Deacetylase 6 (HDAC6)” (ACS Chemical Biology, 2023).

What follows are molecules tested against T1, HDAC6 (Homo sapiens, UniProt Q9UBN7) (assay: Fluorometric HDAC inhibition assay, HDAC6). Details: HDAC6 potency ratio.
T1 construct: TwinStrep-FLAG-HALO (N, cleaved yes); made in house; host or cells: HEK293/T17
T1 sequence (Q9UBN7 1-1215): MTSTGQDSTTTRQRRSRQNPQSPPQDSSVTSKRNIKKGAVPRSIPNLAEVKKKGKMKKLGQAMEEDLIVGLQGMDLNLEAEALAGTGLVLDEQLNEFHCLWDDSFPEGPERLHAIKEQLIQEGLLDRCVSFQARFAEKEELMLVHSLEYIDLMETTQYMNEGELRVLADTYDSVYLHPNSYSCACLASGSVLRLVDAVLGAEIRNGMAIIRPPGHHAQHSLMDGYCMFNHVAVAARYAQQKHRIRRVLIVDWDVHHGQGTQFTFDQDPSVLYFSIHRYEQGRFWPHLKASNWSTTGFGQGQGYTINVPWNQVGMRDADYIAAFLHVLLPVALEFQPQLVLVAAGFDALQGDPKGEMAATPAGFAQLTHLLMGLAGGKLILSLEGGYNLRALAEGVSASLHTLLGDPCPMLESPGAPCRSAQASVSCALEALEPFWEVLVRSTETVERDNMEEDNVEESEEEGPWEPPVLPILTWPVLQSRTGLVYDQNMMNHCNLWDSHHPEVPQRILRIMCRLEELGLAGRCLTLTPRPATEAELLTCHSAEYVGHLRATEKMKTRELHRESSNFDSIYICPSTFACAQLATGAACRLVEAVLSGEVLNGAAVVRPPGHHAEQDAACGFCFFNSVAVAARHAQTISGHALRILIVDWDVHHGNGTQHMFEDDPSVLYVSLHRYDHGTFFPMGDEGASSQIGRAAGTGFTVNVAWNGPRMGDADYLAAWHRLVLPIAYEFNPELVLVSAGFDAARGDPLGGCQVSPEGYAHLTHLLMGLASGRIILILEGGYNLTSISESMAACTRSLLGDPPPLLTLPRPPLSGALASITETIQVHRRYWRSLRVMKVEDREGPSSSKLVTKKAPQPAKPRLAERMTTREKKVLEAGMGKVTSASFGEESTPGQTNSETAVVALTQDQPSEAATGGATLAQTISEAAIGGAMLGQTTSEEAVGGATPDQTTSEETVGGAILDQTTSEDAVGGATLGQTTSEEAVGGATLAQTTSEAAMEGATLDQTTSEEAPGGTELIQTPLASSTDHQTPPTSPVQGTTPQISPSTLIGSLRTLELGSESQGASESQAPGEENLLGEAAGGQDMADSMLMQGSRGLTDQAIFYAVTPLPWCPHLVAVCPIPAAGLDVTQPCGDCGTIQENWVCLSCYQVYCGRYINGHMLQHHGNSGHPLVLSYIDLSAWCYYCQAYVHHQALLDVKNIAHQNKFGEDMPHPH
Type: biochemical
Protocol: Large-scale expression of recombinant human HDACs was carried out as described previously.[32],[37] Briefly, HEK293/T17 cells were transiently transfected with expression pMM222 plasmids comprising N-terminally tagged (TwinStrep-FLAG-HALO tag; Figure S1) HDAC genes using linear poly(ethyleneimine) (PEI, Polysciences Inc.). Cells were harvested three days post-transfection, and cell pellets were resuspended in the lysis buffer (100 mM Tris-HCl, 10 mM NaCl, 5 mM KCl, 2 mM MgCl2, and 10% glycerol at pH 8.0). Cells were disrupted by sonication, cell lysates were cleared by centrifugation, and soluble fusion proteins were first purified by Streptactin affinity chromatography (IBA). For all HDACs but HDACs 1, 10, and 11, the N-terminal tag was cleaved off overnight by the addition of TEV protease (10:1 HDAC/TEV ratio). Size-exclusion chromatography on a Superose 6 column (GE Healthcare Bio-Sciences; running buffer 30 mM HEPES, 140 mM NaCl, 10 mM KCl, 3% glycerol, and 0.25 mM TCEP) was used as the final purification step for all HDAC constructs.
Optimized fluorometric assays were used to determine inhibition constants of studied compounds against individual HDAC isoforms as described previously.[32] Briefly, reactions were performed in the activity buffer comprising 50 mM HEPES, 140 mM NaCl, and 10 mM KCl at pH 7.4 supplemented with 1 mg mL^–1 bovine serum albumin (BSA), 1 mM tris(2-carboxyethyl)phosphine (TCEP), 10 μM substrates, and optimized concentrations of HDACs. The Ac-Gly-Ala-[Lys-Ac]-7-amino-methylcoumarylamide (AMC) substrate was used to profile HDACs 1, 2, 3, and 6; Boc-[Lys-TFA]-7-amino-methylcoumarylamide was used for HDACs 4, 5, 7, 8, and 9 (both substrates: Bachem); fluorescein-labeled N8-acetylspermidine was used for HDAC10;[32] and an internally quenched TNFα-derived peptide derivative was used for HDAC11.[39] Deacetylation reactions were monitored either by high-performance liquid chromatography (HPLC) (HDAC10) or by quantification of released AMC (λex/λem = 365/440 nm) using a CLARIOstar plate reader (BMG Labtech GmbH).

SMILES | fold more potent compared to the hydrazide product 4
CS(=O)(=O)N(Cc1ccc(-c2nnc(C(F)(F)F)o2)cn1)c1cccc(Cl)c1 [compound 7] | ~150 fold
CS(=O)(=O)N(Cc1ccc(-c2nnc(C(F)F)o2)cn1)c1cccc(Cl)c1 [compound 8] | approximately 1000 fold

Same assay, conditions: purified human protein; Ac-Gly-Ala-[Lys-Ac]-AMC substrate 10 μM; 15 min preincubation

IC50 [µM] | SMILES
0.0146 ± 0.008 | CS(=O)(=O)N(Cc1ccc(-c2nnc(C(F)(F)F)o2)cn1)c1cccc(Cl)c1 [compound 7]
10.8 | CS(=O)(=O)N(Cc1ccc(C(=O)NNC(=O)C(F)(F)F)cn1)c1cccc(Cl)c1 [compound 5]
2.16 ± 0.392 | CS(=O)(=O)N(Cc1ccc(C(=O)NN)cn1)c1cccc(Cl)c1 [compound 4]
14.5 | CS(=O)(=O)N(Cc1ccc(C(=O)NNC(=O)C(F)F)cn1)c1cccc(Cl)c1 [compound 6]
